Laboratory results published in patent US20240148623A1, “GADUSOL AND GADUSPORINE COMPOUND FORMULATIONS FOR TOPICALS” (GADUSOL LABORATORIES, INC., priority 2021, published 2024).
Like-named read-outs stand apart in the source and are kept apart here. One block for each compound: values may come before it.

How the values were obtained:
cells = assay: In vivo antioxidant testing (intracytoplasmic activity in cells); assay type: cell-based; details: for lysis of the cells: highest dose 3.3 mg/ml
Method: The test is designed to measure antioxidant power but requires also that the anti-oxidant agent cross the cell's lipid boundary layer so that only intracytoplasmic activity is measured. […] Some activity was seen even at concentrations below 0.1 mg/ml.

E. coli = assay: Toxicity towards E. coli; assay type: cell-based
[1] = Antioxidant capacity, Folin-Ciocalteu method; details: 0.3 to 10 mg/ml, versus porphyra-334
[2] = Storage stability of gadusol; assay type: physicochemical; details: after 90 days at pH 2.5
Description: Addition of an antioxidant could be helpful in increasing the shelf life of gadusol. The stability of gadusol is much higher when stored under acidic conditions. For example, 90% activity was retained after 90 days at pH 2.5. Therefore, storage under acidic conditions may be useful for stabilizing gadusol generally, e.g., prior to introduction into a topical formulation. Combining gadusol with another antioxidant may be useful for extending the shelf life or stability of gadusol in a topical formulation. Storage of gadusol in nitrogen-purged solutions in containers with minimal headspace increased its stability.

Vero E6 fibroblasts = assay: Cellular toxicity in Vero E6 fibroblasts; assay type: cell-based; details: compared to oxybenzone
Description: (§1) The cellular toxicity of gadusol was compared to that of a common sunscreen ingredient, oxybenzone. Vero E6 fibroblasts were used to evaluate toxicity.

Ames test (mutagenicity) = assay type: cell-based
Comet assay = assay type: cell-based
Description: as §1

[3] = cited from earlier work
[4] = UV absorbance (absorption maximum, molar extinction coefficient); assay type: physicochemical; details: for UV maximum: under acidic conditions
Description: Gadusol, gadusporine A 100, gadusporine, B 102, and gadusporine C 104 may be isolated by column purification of Streptomyces coelicolor culture broth (as described in the above publication).
Despite the only difference being a hydroxy group, there are a few notable differences between shinorine and gadusporine A 100. Shinorine has been reported to have an absorption max=330 nm at pH 1.7 and an absorption max=334 nm at pH 7. […] Gadusporine A 100 has a molar extinction coefficient (□□=49,400, as measured in 50 mM phosphate buffer at pH 7.0, which is slightly higher than that of shinorine (□□=44,000), and thus has stronger UV absorbance activity.

Solubility in methanol = assay type: physicochemical
Description: Gadusporine B 102 contains L-alanine and glycine, making gadusporine B 102 an analog of mycosporine-glycine-alanine.

Compound: COC1=C(O)CC(O)(CO)C(O)C1=O (stereo not shown) [Gadusol]
- toxicity towards E. coli (E. coli): nor toxic towards E. coli
- in vivo antioxidant activity (cells; at about 1 mg/ml, versus the mycosporine): significantly more active antioxidant
- lysis of the cells (cells): some lysis of the cells
- in vivo antioxidant activity (cells; overall, compared with porphyra-334): outperformed porphyra-334
- antioxidant power [1]: equivalent to a mycosporine compound
- activity retained [2]: 90%
- cellular toxicity (Vero E6 fibroblasts): less toxic than oxybenzone
- mutagenicity (Ames test (mutagenicity)): not to be mutagenic
- toxicity in comet assay (Comet assay): nor toxic in the comet assay

Compound: COC1=C(NCC(=O)O)C[C@@](O)(CO)C/C1=N\[C@@H](CO)C(=O)O [Shinorine]
- absorption max ([3]; pH 1.7, reported): 330 nm
- absorption max ([3]; pH 7, reported): 334 nm
- molar extinction coefficient ([3]; shinorine comparison value): 44,000

Compound: Gadusporine A
- molar extinction coefficient ([4]; 50 mM phosphate buffer at pH 7.0, in M-1 cm-1 (unit assumed)): 49,400
- absorption max ([4]; pH 2.0): 338
- absorption max ([4]; pH 7.0): 340 nm
- UV maximum [4]: 338 nm

The next lines start with the values.

- lysis of the cells (cells): some lysis of the cells
Compound: COC1=C(NCC(=O)O)C[C@@](O)(CO)CC1=N[C@H](C(=O)O)[C@@H](C)O [porphyra-334, reference compound]

- UV maximum [4]: 338 nm
- solubility in methanol (Solubility in methanol): not very soluble in methanol
Compound: Gadusporine B
